Drawing on patent US7541368B2, “Pyrazoles as inhibitors of tumor necrosis factor” (Aventis Pharmaceuticals Inc., priority 2003, dated 2009), this text covers IC50 for 25 compounds.

The test concerns TNF-alpha release in THP-1 cells. In words: LPS-induced TNF-alpha release in THP-1 cells. Particulars: Homo sapiens, THP-1, LPS-stimulated THP-1 cells; read-out: 50% inhibition in the LPS-induced TNF-alpha release in THP-1 cells assay at concentrations within the range. The format is cell-based. Here is the method: The effects of compounds on TNF-alpha production by lipopolysaccharide (LPS)-stimulated […] monocytes were examined as follows.
Undifferentiated THP-1 cells were maintained in RPMI 1640 with Glutamax I containing β-mercaptoethananol (50 μM) and foetal calf serum (FCS-10%) at densities of about 1×10^6 cells per ml. For incubations without and with test reagents, cells were seeded at the indicated densities under serum-deprived (1% FCS) conditions. Compounds were dissolved in dimethylsulfoxide (DMSO-100%) and incubated with the cells to give a fmal DMSO concentration of 0.3%. Control and untreated cell samples were incubated with DMSO (0.3%).
THP-1 cells (1×10 ^6 cells/ml, total volume 150 μl) in culture medium were incubated for 1 hour (5% CO2, 37° C.) with fresh medium containing compounds or vehicle (0.1-0.3% dimethylsulfoxide). LPS (20 μg/ml) was then added to the cells and the incubation continued for a fuirther 18 hours. Cell supernatants were removed into 96 well plates for storage at −20° C.
TNF-alpha concentrations in cell supernatants were quantified by sandwich ELISA. Briefly, ELISA plates were coated overnight with 2 μg/ml of mouse anti-human TNF-alpha antibody in bicarbonate buffer (pH 9.9). After washing the wells with wash buffer (0.05% (v/v) Tween in PBS)and blocking unoccupied sites (1% BSA in wash buffer), monocyte supernatant samples or human recombinant TNF-alpha standards were added into the corresponding wells of the ELISA plate at 1:10 dilution. Biotinylated rabbit polyclonal anti-human TNF-alpha antibody (3 μg/ml) was used as the second antibody and streptavidin-horseradish peroxidase was used as the detection antibody. The peroxidase substrate is 3,3′,5,5′-tetramethylbenzidine (TMB) in the presence of hydrogen peroxide.
TNFα concentrations in supernatants from control and LPS-stimulated monocyte incubations were calculated by interpolation from a standard (log/log) curve (0.125-16 ng/ml) fitted by Excel Fit using the Activity Base software. Compounds were tested within the concentration range of 1×10^−9M to 1×10^−6M.
Take `Cc1ccc(-n2nc(C(C)(C)C)cc2NC(=O)Nc2ccc(CC3CCN(C(=O)CCc4ccccc4)CC3)cc2)cc1` [Compound A354, 1-(5-tert-Butyl-2-p-tolyl-2H-pyrazol-3-yl)-3-{4-[1-(3-phenyl-propionyl)-piperidin-4-ylmethyl]-phenyl}-urea]: the IC50 was 0.01 to 0.5 µM. With `COc1ccc(C(=O)N2CCC(Cc3ccc(NC(=O)Nc4cc(C(C)(C)C)nn4-c4ccc(C)cc4)cc3)CC2)c(OC)n1` [Compound A224, 1-(5-tert-Butyl-2-p-tolyl-2H-pyrazol-3-yl)-3-{4-[1-(2,6-dimethoxy-pyridine-3-carbonyl)-piperidin-4-ylmethyl]-phenyl}-urea] the figure was 0.01 to 0.5 µM.

`CCS(=O)(=O)N1CCC(Cc2ccc(NC(=O)Nc3cc(C(C)(C)C)nn3-c3ccc(C)cc3)cc2)CC1` [Compound A606, 1-(5-tert-Butyl-2-p-tolyl-2H-pyrazol-3-yl)-3-[4-(1-ethanesulfonyl-piperidin-4-ylmethyl)-phenyl]-urea]: the IC50 lay in the range of 0.01 to 0.5 µM.

For `COc1cc(N)c(Cl)cc1C(=O)N1C2CCC1CC(Cc1ccc(NC(=O)Nc3cc(C(C)(C)C)nn3-c3ccc(C)cc3)cc1)C2` (stereo not shown) [Compound A1441, 1-{4-[8-(4-Amino-5-chloro-2-methoxy-benzoyl)-8-aza-bicyclo[3.2.1]oct-3-ylmethyl]-phenyl}-3-(5-tert-butyl-2-p-tolyl-2H-pyrazol-3-yl)-urea], the IC50 is 0.01 to 0.5 µM. As for `Cc1ccc(-n2nc(C(C)(C)C)cc2NC(=O)Nc2cccc(CC3CCN(C(=O)Cc4ccc(F)cc4F)CC3)c2)cc1` [Compound A26, 1-(5-tert-Butyl-2-p-tolyl-2H-pyrazol-3-yl)-3-(3-{1-[2-(2,4-difluoro-phenyl)-acetyl]-piperidin-4-ylmethyl}-phenyl)-urea], the IC50 fell in the range of 0.01 to 0.5 µM. Consider `Cc1ccc(-n2nc(C(C)(C)C)cc2NC(=O)Nc2cccc(CC3CCN(C(=O)c4cnccc4C(F)(F)F)CC3)c2)cc1` [Compound A126, 1-(5-tert-Butyl-2-p-tolyl-2H-pyrazol-3-yl)-3-{3-[1-(4-trifluoromethyl-pyridine-3-carbonyl)-piperidin-4-ylmethyl]-phenyl}-urea], for which the IC50 lay in the range of 0.01 to 0.5 µM.

For `Cc1ccc(-n2nc(C(C)(C)C)cc2NC(=O)Nc2cccc(CC3CCN(C(=O)c4coc5c4C(=O)CCC5)CC3)c2)cc1` [Compound A154, 1-(5-tert-Butyl-2-p-tolyl-2H-pyrazol-3-yl)-3-{3-[1-(4-oxo-4,5,6,7-tetrahydro-benzofuran-3-carbonyl)-piperidin-4-ylmethyl]-phenyl}-urea], the IC50 was 0.01 to 0.5 µM. In the case of `Cc1ccc(-n2nc(C(C)(C)C)cc2NC(=O)Nc2ccc(CC3CCN(C(=O)Cc4ccsc4)CC3)cc2)cc1` [Compound A389, 1-(5-tert-Butyl-2-p-tolyl-2H-pyrazol-3-yl)-3-{4-[1-(2-thiophen-3-yl-acetyl)-piperidin-4-ylmethyl]-phenyl}-urea], the IC50 lay in the range of 0.01 to 0.5 µM. With `Cc1ccc(-n2nc(C(C)(C)C)cc2NC(=O)Nc2ccc(CC3CCN(C(=O)Cc4c[nH]c5ccccc45)CC3)cc2)cc1` [Compound A358, 1-(5-tert-Butyl-2-p-tolyl-2H-pyrazol-3-yl)-3-{4-[1-(2-1H-indol-3-yl-acetyl)-piperidin-4-ylmethyl]-phenyl}-urea], the IC50 lay in the range of 0.01 to 0.5 µM.

As to `Cc1ccc(-n2nc(C(C)(C)C)cc2NC(=O)Nc2ccc(CC3CCN(C(=O)c4ccoc4)CC3)cc2)cc1` [Compound A286, 1-(5-tert-Butyl-2-p-tolyl-2H-pyrazol-3-yl)-3-{4-[1-(furan-3-carbonyl)-piperidin-4-ylmethyl]-phenyl}-urea], the IC50 fell in the range of 0.01 to 0.5 µM. Turning to `COc1cccc(CC(=O)N2CCC(Cc3cccc(NC(=O)Nc4cc(C(C)(C)C)nn4-c4ccc(C)cc4)c3)CC2)c1OC` [Compound A22, 1-(5-tert-Butyl-2-p-tolyl-2H-pyrazol-3-yl)-3-(3-{1-[2-(2,3-dimethoxy-phenyl)-acetyl]-piperidin-4-ylmethyl}-phenyl)-urea], the IC50 lay within 0.01 to 0.5 µM. As for `Cc1ccc(-n2nc(C(C)(C)C)cc2NC(=O)Nc2ccc(CC3CCN(C(=O)c4c(C)cc(C)cc4C)CC3)cc2)cc1` [Compound A216, 1-(5-tert-Butyl-2-p-tolyl-2H-pyrazol-3-yl)-3-{4-[1-(2,4,6-trimethyl-benzoyl)-piperidin-4-ylmethyl]-phenyl}-urea], the figure is 0.01 to 0.5 µM; as for `Cc1ccc(-n2nc(C(C)(C)C)cc2NC(=O)Nc2ccc(CC3CCN(C(=O)c4cc(C)oc4C)CC3)cc2)cc1` [Compound A222, 1-(5-tert-Butyl-2-p-tolyl-2H-pyrazol-3-yl)-3-{4-[1-(2,5-dimethyl-furan-3-carbonyl)-piperidin-4-ylmethyl]-phenyl}-urea], 0.01 to 0.5 µM. As for `Cc1ccc(-n2nc(C(C)(C)C)cc2NC(=O)Nc2cccc(CC3CCN(C(=O)c4ccc5ncsc5c4)CC3)c2)cc1` [Compound A150, 1-{3-[1-(Benzothiazole-6-carbonyl)-piperidin-4-ylmethyl]-phenyl}-3-(5-tert-butyl-2-p-tolyl-2H-pyrazol-3-yl)-urea], the figure is 0.01 to 0.5 µM; as for `Cc1ccc(-n2nc(C(C)(C)C)cc2NC(=O)Nc2cccc(CC3CCN(C(=O)Cc4ccccc4C)CC3)c2)cc1` [Compound A182, 1-(5-tert-Butyl-2-p-tolyl-2H-pyrazol-3-yl)-3-{3-[1-(2-o-tolyl-acetyl)-piperidin-4-ylmethyl]-phenyl}-urea], 0.01 to 0.5 µM. As for `CCCC(=O)N1CCC(Cc2ccc(NC(=O)Nc3cc(C(C)(C)C)nn3-c3ccc(C)cc3)cc2)CC1` [Compound A343, 1-(5-tert-Butyl-2-p-tolyl-2H-pyrazol-3-yl)-3-[4-(1-butyryl-piperidin-4-ylmethyl)-phenyl]-urea], the figure is 0.01 to 0.5 µM; as for `Cc1ccc(-n2nc(C(C)(C)C)cc2NC(=O)Nc2cccc(CC3CCN(C(=O)c4cnc(C)cn4)CC3)c2)cc1` [Compound A140, 1-(5-tert-Butyl-2-p-tolyl-2H-pyrazol-3-yl)-3-{3-[1-(5-methyl-pyrazine-2-carbonyl)-piperidin-4-ylmethyl]-phenyl}-urea], 0.01 to 0.5 µM; as for `Cc1ccc(-n2nc(C(C)(C)C)cc2NC(=O)Nc2ccc(CC3CCN(C(=O)c4cccc(C(C)C#N)c4)CC3)cc2)cc1` (stereo not shown) [Compound A272, 1-(5-tert-Butyl-2-p-tolyl-2H-pyrazol-3-yl)-3-(4-{1-[3-(cyano-methyl-methyl)-benzoyl]-piperidin-4-ylmethyl}-phenyl)-urea], 0.01 to 0.5 µM. With `Cc1ccc(-n2nc(C(C)(C)C)cc2NC(=O)Nc2ccc(CC3CCN(C(=O)Nc4ccc5c(c4)OCO5)CC3)cc2)cc1` [Compound A429, 4-{4-[3-(5-tert-Butyl-2-p-tolyl-2H-pyrazol-3-yl)-ureido]-benzyl}-piperidine-1-carboxylic acid benzo[1,3]dioxol-5-ylamide], the IC50 fell in the range of 0.01 to 0.5 µM. Regarding `Cc1ccc(-n2nc(C(C)(C)C)cc2NC(=O)Nc2cccc(CC3CCN(C(=O)c4csnn4)CC3)c2)cc1` [Compound A6, 1-(5-tert-Butyl-2-p-tolyl-2H-pyrazol-3-yl)-3-{3-[1-([1,2,3]thiadiazole-4-carbonyl)-piperidin-4-ylmethyl]-phenyl}-urea], the IC50 lay within 0.01 to 0.5 µM. Turning to `Cc1ccc(-n2nc(C(C)(C)C)cc2NC(=O)Nc2cccc(CC3CCN(C(=O)c4ccc(S(C)(=O)=O)cc4Cl)CC3)c2)cc1` [Compound A40, 1-(5-tert-Butyl-2-p-tolyl-2H-pyrazol-3-yl)-3-{3-[1-(2-chloro-4-methanesulfonyl-benzoyl)-piperidin-4-ylmethyl]-phenyl}-urea], the IC50 was in the range of 0.01 to 0.5 µM. With `Cc1ccc(-n2nc(C(C)(C)C)cc2NC(=O)Nc2cccc(CC3CCN(C(=O)c4cnccn4)CC3)c2)cc1` [Compound A64, 1-(5-tert-Butyl-2-p-tolyl-2H-pyrazol-3-yl)-3-{3-[1-(pyrazine-2-carbonyl)-piperidin-4-ylmethyl]-phenyl}-urea] the figure was 0.01 to 0.5 µM; with `COc1cccc(CC(=O)N2CCC(Cc3ccc(NC(=O)Nc4cc(C(C)(C)C)nn4-c4ccc(C)cc4)cc3)CC2)c1OC` [Compound A213, 1-(5-tert-Butyl-2-p-tolyl-2H-pyrazol-3-yl)-3-(4-{1-[2-(2,3-dimethoxy-phenyl)-acetyl]-piperidin-4-ylmethyl}-phenyl)-urea], 0.01 to 0.5 µM; with `Cc1ccc(-n2nc(C(C)(C)C)cc2NC(=O)Nc2cccc(CC3CCN(C(=O)c4ccco4)CC3)c2)cc1` [Compound A45, 1-(5-tert-Butyl-2-p-tolyl-2H-pyrazol-3-yl)-3-{3-[1-(furan-2-carbonyl)-piperidin-4-ylmethyl]-phenyl}-urea], 0.01 to 0.5 µM. With `COc1ccc(C(=O)N2CCC(Cc3ccc(NC(=O)Nc4cc(C(C)(C)C)nn4-c4ccc(C)cc4)cc3)CC2)cc1OC` [Compound A261, 1-(5-tert-Butyl-2-p-tolyl-2H-pyrazol-3-yl)-3-{4-[1-(3,4-dimethoxy-benzoyl)-piperidin-4-ylmethyl]-phenyl}-urea] the figure was 0.01 to 0.5 µM.
